The values below come from ChEMBL document CHEMBL1152634, “Synthesis and evaluation of novel alpha-heteroaryl-phenylpropanoic acid derivatives as PPARalpha/gamma dual agonists” (Bioorg Med Chem, 2009).

Series [1] can be described thus: Volume of distribution at steady state in rat at 1 mg/kg, iv. The series is classed as ADME, organism-based. The arrangement: dose 1 mg/kg, route intravenous. The note with it: in vivo, read-out: Vdss.
Series [2] can be described thus: Oral bioavailability in rat at 3 mg/kg, po. The series is classed as ADME, organism-based. The note with it: in vivo.
Series [3] can be described thus: Clearance in dog at 1 mg/kg, iv. Further details: dose 1 mg/kg, route intravenous. The series is classed as ADME, organism-based, Canis lupus familiaris. The note with it: in vivo.
A short description of series [4]: Half life in rat at 1 mg/kg, iv. Further details: dose 1 mg/kg, route intravenous. The note with it: in vivo. The format is ADME, organism-based.
Series [5] in a line: AUC in dog at 3 mg/kg, po. The series is classed as ADME, organism-based, Canis lupus familiaris. The arrangement: dose 3 mg/kg, route oral. The note with it: plasma.
Series [6] is described as follows: Volume of distribution at steady state in dog at 1 mg/kg, iv. The format is ADME, organism-based, Canis lupus familiaris. The arrangement: dose 1 mg/kg, route intravenous. The note with it: in vivo, read-out: Vdss.
The nature of series [7]: AUC in rat at 1 mg/kg, iv. The series is classed as ADME, organism-based. Further details: dose 1 mg/kg, route intravenous. The note with it: plasma.
The nature of series [8]: Clearance in rat at 1 mg/kg, iv. The format is ADME, organism-based. The arrangement: dose 1 mg/kg, route intravenous. The settings on record: in vivo.
Series [9] in a line: AUC in dog at 1 mg/kg, iv. The series is classed as ADME, organism-based, Canis lupus familiaris. Further details: dose 1 mg/kg, route intravenous. The note with it: plasma.
Series [10] is described as follows: Oral bioavailability in dog at 3 mg/kg, po. The series is classed as ADME, organism-based, Canis lupus familiaris. The settings on record: in vivo.
Series [11] is described as follows: Half life in dog at 1 mg/kg, iv. The format is ADME, organism-based, Canis lupus familiaris. The settings on record: in vivo. The arrangement: dose 1 mg/kg, route intravenous.
A short description of series [12]: AUC in rat at 3 mg/kg, po. The format is ADME, organism-based. The arrangement: dose 3 mg/kg, route oral. The note with it: plasma.

What is called bioavailability is the share of a dose that reaches the circulation, judged against a reference dose that is usually intravenous. Read a low bioavailability as poor availability. In general, clearance refers to the rate of elimination divided by the concentration. Low readings indicate a low capacity for elimination, high ones a high capacity for elimination. As a reminder, the half-life is how long it takes for the measured level to halve. A low value points to fast loss. One may read the AUC as the area under the concentration-time curve, a measure of exposure. A higher AUC goes with high exposure. Regarding `Cc1oc(-c2ccccc2)nc1CCCc1ccc(C[C@@H](C(=O)O)n2nccn2)cc1`, the Vd worked out at 2.9 L/kg in series [1] and 0.82 L/kg in series [6]. Besides, the results for the bioavailability in [2] and in [10] were 42% and more than 95%, respectively. Further, the clearance came out at 4.4 mL/min/kg in series [3] and 18 mL/min/kg in [8]. The half-life in series [4] was 7.5 h; in series [11] it was 5.8 h. Besides, the exposure (AUC) in [5] was 13000 ng·h/mL; in [7], 928 ng·h/mL; in series [9], 3970 ng·h/mL; in [12] it was 1170 ng·h/mL.
